The values that follow come from ChEMBL document CHEMBL1201862, “PubChem BioAssay data set” (2004).

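Test compounds were applied to cells in 96-well plates for 48 hours at 5 doses. At the GI50, growth is halved.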 The source made the active and inactive calls. Rule as the data show it: active = GI50 up to about 1.1 µM and inactive = higher.

Some test systems named below: M19-MEL; SF-295; MDA-MB-435; SF-539; SK-MEL-5; UO-31; TK-10; Malme-3M; M14; HCT-116; Hs-578T; OVCAR-5; MDA-MB-231; K562; CCRF-CEM; DU-145; UACC-62; UACC-257; SF-268; DMS-114.
What all share (assay): DTP human tumour cell line panel, 48 h

For the molecule `CC[C@@]1(OP(=O)(O)O)C(=O)OCc2c1cc1n(c2=O)Cc2cc3ccccc3nc2-1`, the GI50 (in general, the concentration at which growth is held to half of that of the control) is 1.01 µM (active) in the experiment with M19-MEL; 30.1 nM (active) in the experiment on SF-295; 339 nM (active) in the experiment on MDA-MB-435; 109 nM (active) in the experiment with SF-539; 153 nM (active) with SK-MEL-5; 83.6 nM (active) in the experiment on UO-31. The GI50 is 2.55 µM (inactive) in the experiment with TK-10; 1.67 µM (inactive) in the experiment with Malme-3M; 77.6 nM (active) in the experiment on M14; 157 nM (active) in the experiment on HCT-116; > 10 µM (inactive) in the experiment with Hs-578T; 231 nM (active) in the experiment with OVCAR-5. In addition, the GI50 in the experiment with MDA-MB-231 was 3.37 µM (inactive); in the experiment with K562 it was 438 nM (active); in the experiment with CCRF-CEM, 9.27 nM (active); in the experiment with DU-145, 48.8 nM (active); in the experiment with UACC-62, 38.1 nM (active); with UACC-257 it was 287 nM (active). The GI50 was 48.6 nM (active) in the experiment on SF-268 and 48.5 nM (active) in the experiment on DMS-114.
`CCC1(OC(=O)CN2CCN(CCO)CC2)C(=O)OCc2c1cc1n(c2=O)Cc2cc3ccccc3nc2-1` (stereo not given): the 50% growth inhibitory concentration (GI50) with M19-MEL is 0.789 µM (active); in the experiment on SF-295 it was 141 nM (active); with MDA-MB-435, 1150 nM (inactive); in the experiment with SF-539, 188 nM (active); in the experiment with SK-MEL-5 it was 281 nM (active); in the experiment on UO-31, 169 nM (active). Further, the GI50 is 8.49 µM (inactive) with TK-10; 1.95 µM (inactive) with Malme-3M; 265 nM (active) in the experiment with M14; 417 nM (active) with HCT-116; 14 µM (inactive) in the experiment on Hs-578T; 1100 nM (active) in the experiment with OVCAR-5. For the same molecule, the GI50 in the experiment with MDA-MB-231 was 14.1 µM (inactive); in the experiment on K562, 583 nM (active); in the experiment on CCRF-CEM it was 32.4 nM (active); with DU-145, 82.2 nM (active); in the experiment on UACC-62 it was 75.9 nM (active); with UACC-257 it was 771 nM (active). Besides, the GI50 was 138 nM (active) with SF-268 and 558 nM (active) in the experiment on DMS-114.
